In article PMC4775402 (Pharmacological research, 2016):

Assays:
[1] = target: WT HTR2A (Homo sapiens, UniProt P28223); experiment: Label-free DMR agonist response, HEK293T expressing WT HTR2A; type: cell-based; conditions: time to peak DMR
[2] = target: ΔPDZ HTR2A (Homo sapiens, UniProt P28223); experiment: Label-free DMR agonist response, HEK293T expressing ΔPDZ HTR2A; type: cell-based
Sequence of ΔPDZ HTR2A (P28223 1-467 limits assumed, stated change not applied): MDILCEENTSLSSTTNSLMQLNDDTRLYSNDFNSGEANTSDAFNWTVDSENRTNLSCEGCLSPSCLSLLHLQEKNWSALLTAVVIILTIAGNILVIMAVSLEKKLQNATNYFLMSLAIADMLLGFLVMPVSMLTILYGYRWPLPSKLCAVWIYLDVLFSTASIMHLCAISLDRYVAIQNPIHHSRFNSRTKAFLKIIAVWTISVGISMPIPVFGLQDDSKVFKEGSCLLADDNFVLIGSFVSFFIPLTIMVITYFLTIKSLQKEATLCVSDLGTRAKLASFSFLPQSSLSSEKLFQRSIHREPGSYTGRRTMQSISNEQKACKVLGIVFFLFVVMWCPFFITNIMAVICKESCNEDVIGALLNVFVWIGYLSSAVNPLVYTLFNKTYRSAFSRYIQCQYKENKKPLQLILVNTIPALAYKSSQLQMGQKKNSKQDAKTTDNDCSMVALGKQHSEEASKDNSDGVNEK

Sequence of WT HTR2A (P28223 whole entry): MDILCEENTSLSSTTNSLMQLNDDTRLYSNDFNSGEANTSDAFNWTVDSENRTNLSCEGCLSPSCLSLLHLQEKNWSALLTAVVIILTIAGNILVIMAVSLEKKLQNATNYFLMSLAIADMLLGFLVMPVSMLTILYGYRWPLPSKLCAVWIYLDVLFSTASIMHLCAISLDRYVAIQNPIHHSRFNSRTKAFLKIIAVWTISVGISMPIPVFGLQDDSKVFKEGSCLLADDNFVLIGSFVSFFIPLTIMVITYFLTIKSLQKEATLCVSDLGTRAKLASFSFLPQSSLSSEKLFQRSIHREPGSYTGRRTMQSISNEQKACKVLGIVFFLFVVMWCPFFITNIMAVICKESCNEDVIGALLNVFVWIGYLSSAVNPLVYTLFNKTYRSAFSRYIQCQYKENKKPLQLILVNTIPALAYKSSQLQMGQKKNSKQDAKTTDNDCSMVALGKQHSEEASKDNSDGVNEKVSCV

Cl.NCCc1c[nH]c2ccc(O)cc12 [5-hydroxytryptamine, 5-hydroxytryptamine hydrochloride]
WT TTP [1]: 14.10 s
ΔPDZ Max (DMR) ([2]; maximal agonist DMR response): 106.10 ± 3.96
ΔPDZ TTP ([2]; time to peak DMR): 14.70 s
